Measured values reported in DBAASP.
In brackets after ≈: the same amount, converted by molar mass. Several values for one entry are separate records, joined by “and”; a condition that tells them apart may be missing. Equal entries are not always repeated.

Key:
Test in all cases: ≥ marks a high value that may be exact or a test limit, other limits are often not marked, values filed in µg/mL are converted to µM
[1] = test system: Staphylococcus aureus DBFIQ S21
[2] = test system: Listeria monocytogenes DBFIQ LM3
Escherichia coli K91BK = test system: Escherichia coli K91BK
[3] = test system: Bacillus anthracis Sterne 34F2
[4] = test system: Bacillus subtilis var. niger ATCC 9372
[5] = test system: Staphylococcus epidermidis KCTC 1917
[6] = test system: Pseudomonas aeruginosa KCTC 1637
[7] = test system: Staphylococcus aureus CCARM 3089
[8] = test system: Escherichia coli KCTC 1682
[9] = test system: Salmonella typhimurium KCTC 1926
[10] = test system: Staphylococcus aureus KCTC 1621
[11] = test system: Staphylococcus aureus CCARM 3114
[12] = test system: Bacillus subtilis KCTC 3068
[13] = test system: Salmonella typhimurium CCARM 8003
[14] = test system: Staphylococcus aureus CCARM 3108
[15] = test system: Escherichia coli CCARM 1229
Trichosporon beigelii = test system: Trichosporon beigelii
Candida albicans = test system: Candida albicans
Malassezia furfur = test system: Malassezia furfur
Aspergillus flavus = test system: Aspergillus flavus
[16] = test system: Salmonella typhimurium CCARM 8007
[17] = test system: Staphylococcus aureus P204
Acinetobacter sp. M9013 = test system: Acinetobacter sp. M9013
[18] = test system: Enterococcus faecalis ATCC 29212
Staphylococcus warneri = test system: Staphylococcus warneri
[19] = test system: Staphylococcus aureus P33
[20] = test system: Pseudomonas aeruginosa PACO12
Acinetobacter sp. M5949 = test system: Acinetobacter sp. M5949
[21] = test system: Staphylococcus epidermidis M2923
[22] = test system: Staphylococcus hominis M2973
[23] = test system: Staphylococcus hominis M2967
[24] = test system: Enterococcus faecalis M6983
[25] = test system: Pseudomonas aeruginosa M5470
Acinetobacter sp. M9665 = test system: Acinetobacter sp. M9665
[26] = test system: Pseudomonas aeruginosa ATCC 27853
[27] = test system: Enterococcus faecalis M6534
[28] = test system: Staphylococcus aureus ATCC 25923
Acinetobacter sp. M13523 = test system: Acinetobacter sp. M13523
[29] = test system: Enterococcus faecium PZAP 95
[30] = test system: Staphylococcus aureus M6276
Escherichia coli M9884 = test system: Escherichia coli M9884
[31] = test system: Enterococcus faecium M2304
[32] = test system: Klebsiella pneumoniae M9170
[33] = test system: Enterococcus faecalis M4899
[34] = test system: Staphylococcus epidermidis M2921
[35] = test system: Klebsiella pneumoniae PFAV 3
[36] = test system: Staphylococcus saprophyticus M4070
[37] = test system: Enterococcus gallinarum M2723
[38] = test system: Enterococcus gallinarum M2685
[39] = test system: Enterococcus faecalis ATCC 51299
[40] = test system: Pseudomonas aeruginosa M13513
[41] = test system: Staphylococcus haemolyticus M2976
Staphylococcus cohnii = test system: Staphylococcus cohnii
[42] = test system: Escherichia coli ATCC 25922

`CC[C@H](C)[C@H](NC(=O)[C@H](C)NC(=O)[C@@H](NC(=O)[C@H](C)NC(=O)CN)[C@@H](C)O)C(=O)N[C@@H](CCCCN)C(=O)N[C@@H](CCC(N)=O)C(=O)N[C@H](C(=O)N[C@@H](CCCCN)C(=O)N[C@@H](CCCCN)C(=O)N[C@@H](CC(C)C)C(=O)N[C@@H](Cc1c[nH]c2ccccc12)C(=O)N[C@@H](CCCCN)C(=O)N[C@@H](CCCCN)C(=O)N[C@@H](CCCCN)C(=O)NCC(=O)NCC(N)=O)C(C)C` [GATAIKQVKKLWKKKGG] showed an MIC [1] of at least 69.6 µM and an MIC [2] of at least 69.6 µM.

In the case of `CC[C@H](C)[C@H](NC(C)=O)C(=O)N[C@@H](CC(C)C)C(=O)N[C@@H](CCCN=C(N)N)C(=O)N[C@@H](Cc1c[nH]c2ccccc12)C(=O)N1CCC[C@H]1C(=O)N[C@@H](Cc1c[nH]c2ccccc12)C(=O)N[C@@H](Cc1c[nH]c2ccccc12)C(=O)N1CCC[C@H]1C(=O)N[C@@H](Cc1c[nH]c2ccccc12)C(=O)N[C@@H](CCCN=C(N)N)C(=O)N[C@@H](CCCN=C(N)N)C(=O)N[C@@H](CCCCN)C(N)=O` [ILRWPWWPWRRK], the MIC (Escherichia coli K91BK) is reported as at least 100 µM, the MIC [3] is reported as 25 µM (≈ 45.5 µg/mL) and the MIC [4] is reported as 3.13 µM (≈ 5.7 µg/mL).

`CC[C@H](C)[C@H](NC(=O)[C@H](C)NC(=O)[C@H](CC(C)C)NC(=O)[C@H](Cc1c[nH]c2ccccc12)NC(=O)[C@H](CC(C)C)NC(=O)[C@@H](N)CCCN=C(N)N)C(=O)NCC(=O)N[C@@H](CCCN=C(N)N)C(=O)N[C@@H](CCCN=C(N)N)C(N)=O` [RLWLAIGRR] gave an MIC [5] of 2 µM (≈ 2.28 µg/mL), an MIC [6] of 16 µM (≈ 18.2 µg/mL) and an MIC [7] of 8 µM (≈ 9.12 µg/mL). The MIC [8] was 4 µM (≈ 4.56 µg/mL), the MIC [9] was 16 µM (≈ 18.2 µg/mL) and the MIC [10] was 4 µM (≈ 4.56 µg/mL). For the same compound, the MIC [11] was 16 µM (≈ 18.2 µg/mL), the MIC [12] was 4 µM (≈ 4.56 µg/mL) and the MIC [13] was at least 32 µM. It also gave an MIC [14] of 4 µM (≈ 4.56 µg/mL) and an MIC [15] of 8 µM (≈ 9.12 µg/mL).

In the case of `CC(C)C[C@H](NC(=O)[C@H](Cc1c[nH]c2ccccc12)NC(=O)[C@H](CC(C)C)NC(=O)[C@@H](N)CCCN=C(N)N)C(=O)N[C@@H](C)C(=O)N[C@@H](Cc1c[nH]c2ccccc12)C(=O)N[C@@H](CCCCN)C(=O)N[C@@H](CCCN=C(N)N)C(=O)N[C@@H](CCCN=C(N)N)C(N)=O` [RLWLAWKRR], the MIC [5] is reported as 1 µM (≈ 1.28 µg/mL), the MIC (Trichosporon beigelii) is reported as 5 µM (≈ 6.42 µg/mL) and the MIC (Candida albicans) is reported as 2.5 µM (≈ 3.21 µg/mL). For the same compound, the MIC [6] was 8 µM (≈ 10.3 µg/mL), the MIC (Malassezia furfur) was 1.25 µM (≈ 1.6 µg/mL) and the MIC (Aspergillus flavus) was 5 µM (≈ 6.42 µg/mL). The MIC [7] was 4 µM (≈ 5.13 µg/mL), the MIC [16] was 8 µM (≈ 10.3 µg/mL) and the MIC [8] was 2 µM (≈ 2.57 µg/mL). The MIC [9] was 2 µM (≈ 2.57 µg/mL), the MIC [10] was 2 µM (≈ 2.57 µg/mL) and the MIC [11] was 8 µM (≈ 10.3 µg/mL). It also gave an MIC [12] of 2 µM (≈ 2.57 µg/mL), an MIC [13] of 4 µM (≈ 5.13 µg/mL) and an MIC [15] of 4 µM (≈ 5.13 µg/mL).

Compound `C[C@H](NC(=O)[C@H](CCCCN)NC(=O)[C@H](CCCCN)NC(=O)[C@H](CCCN=C(N)N)NC(=O)CNC(=O)[C@H](Cc1c[nH]c2ccccc12)NC(=O)[C@H](CCCN=C(N)N)NC(=O)[C@H](CCCN=C(N)N)NC(=O)[C@H](CCCCN)NC(=O)[C@H](Cc1c[nH]c2ccccc12)NC(=O)[C@H](CCCCN)NC(=O)[C@H](Cc1c[nH]c2ccccc12)NC(=O)[C@H](Cc1c[nH]c2ccccc12)NC(=O)[C@H](CCCCN)NC(=O)[C@@H]1CCCN1C(=O)[C@@H](N)Cc1c[nH]c2ccccc12)C(=O)N[C@@H](CCCCN)C(=O)N[C@@H](CCCCN)C(=O)N[C@@H](CCCN=C(N)N)C(=O)N[C@@H](CCCN=C(N)N)C(=O)NCC(N)=O` [WPKWWKWKRRWGRKKAKKRRG] has an MIC [17] of 22 µM (≈ 64 µg/mL), an MIC (Acinetobacter sp. M9013) of 11 µM (≈ 32 µg/mL) and an MIC [18] of 22 µM (≈ 64 µg/mL). The MIC (Staphylococcus warneri) was 2.75 µM (≈ 8 µg/mL), the MIC [19] was 11 µM (≈ 32 µg/mL) and the MIC [20] was 22 µM (≈ 64 µg/mL). It also gave an MIC (Acinetobacter sp. M5949) of at least 88 µM, an MIC [21] of 5.5 µM (≈ 16 µg/mL) and an MIC [22] of 1.37 µM (≈ 4 µg/mL). For the same compound, the MIC [23] was 2.75 µM (≈ 8 µg/mL), the MIC [24] was 22 µM (≈ 64 µg/mL) and the MIC [25] was at least 44 µM. It also gave an MIC (Acinetobacter sp. M9665) of at least 44 µM, an MIC [26] of 22 µM (≈ 64 µg/mL) and an MIC [27] of at least 44 µM. For the same compound, the MIC [28] was 11 µM and 10.9 µM, the MIC (Acinetobacter sp. M13523) was 22 µM (≈ 64 µg/mL) and the MIC [29] was 11 µM (≈ 32 µg/mL). For the same compound, the MIC [30] was 5.5 µM (≈ 16 µg/mL), the MIC (Escherichia coli M9884) was at least 44 µM and the MIC [31] was 5.5 µM (≈ 16 µg/mL). For the same compound, the MIC [32] was at least 352 µM, the MIC [33] was at least 88 µM and the MIC [34] was 2.75 µM (≈ 8 µg/mL). The MIC [35] was at least 352 µM, the MIC [36] was 5.5 µM (≈ 16 µg/mL) and the MIC [37] was 11 µM (≈ 32 µg/mL). It also gave an MIC [38] of 5.5 µM (≈ 16 µg/mL), an MIC [39] of at least 88 µM and an MIC [40] of 11 µM (≈ 32 µg/mL). For the same compound, the MIC [41] was 5.5 µM (≈ 16 µg/mL), the MIC (Staphylococcus cohnii) was 5.5 µM (≈ 16 µg/mL) and the MIC [42] was 44 µM and 43.9 µM.
